{"source": "paper PMC9095466", "about": "(Nature, 2022)", "key": {"[1]": {"biological_target": "T1, Recombinant human hepsin (Homo sapiens, UniProt P05981)", "T1 construct": "made in house", "T1 sequence (P05981 whole entry)": "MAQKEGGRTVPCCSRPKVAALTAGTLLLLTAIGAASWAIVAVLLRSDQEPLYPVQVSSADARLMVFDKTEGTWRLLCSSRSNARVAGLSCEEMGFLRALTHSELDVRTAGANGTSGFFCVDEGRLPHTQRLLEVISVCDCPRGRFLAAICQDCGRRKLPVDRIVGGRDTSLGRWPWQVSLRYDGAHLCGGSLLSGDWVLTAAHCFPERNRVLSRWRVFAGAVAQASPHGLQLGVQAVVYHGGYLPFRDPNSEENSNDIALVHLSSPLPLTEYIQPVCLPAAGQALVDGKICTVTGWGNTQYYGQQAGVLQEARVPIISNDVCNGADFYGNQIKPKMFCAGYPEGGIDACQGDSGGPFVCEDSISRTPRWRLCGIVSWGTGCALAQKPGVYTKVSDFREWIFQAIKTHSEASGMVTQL", "assay": "Protease selectivity, Ki on recombinant protease", "format": "biochemical", "settings": "mean ± s.d., max concentration 10 µM; read-out: Ki Hepsin"}, "[2]": {"biological_target": "T2, human cathepsin L (Homo sapiens, UniProt P07711)", "T2 construct": "purchased Bio-Techne", "T2 sequence (P07711 114-333)": "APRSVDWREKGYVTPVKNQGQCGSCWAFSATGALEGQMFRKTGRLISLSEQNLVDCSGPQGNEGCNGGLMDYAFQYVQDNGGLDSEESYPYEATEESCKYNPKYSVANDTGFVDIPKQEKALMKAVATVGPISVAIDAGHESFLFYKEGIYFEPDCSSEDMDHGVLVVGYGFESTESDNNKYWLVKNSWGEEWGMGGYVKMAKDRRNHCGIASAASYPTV", "assay": "Protease selectivity, Ki on protease", "format": "biochemical", "settings": "mean ± s.d., max concentration 10 µM; read-out: Ki Cathepsin L"}, "[3]": {"biological_target": "T3, human thrombin (Homo sapiens, UniProt P00734)", "T3 construct": "purchased MilliporeSigma", "assay": "Protease selectivity, Ki on protease", "format": "biochemical", "settings": "mean ± s.d., max concentration 10 µM; read-out: Ki Thrombin"}, "[4]": {"system": "Calu-3 cells", "assay": "Cytotoxicity CC50 in Calu-3 lung epithelial cells", "format": "cell-based, human", "settings": "single replicates"}, "[5]": {"assay": "Cytotoxicity CC50 in Calu-3 lung epithelial cells", "format": "cell-based, human", "settings": "human, Calu-3 cells; for viability at 24 h, 3000 µM: Log [inhibitor] -2.52; for viability at 24 h, 1000 µM: Log [inhibitor] -3.00; for viability at 24 h, 300 µM: Log [inhibitor] -3.52; for viability at 24 h, 100 µM: Log [inhibitor] -4.00; for viability at 24 h, 30 µM: Log [inhibitor] -4.52; for viability at 24 h, 10 µM: Log [inhibitor] -5.00; for viability at 24 h, 3 µM: Log [inhibitor] -5.52; for viability at 24 h, 0.3 µM: Log [inhibitor] -6.52; for viability at 24 h, 0.03 µM: Log [inhibitor] -7.52; for viability at 24 h, 0.003 µM: Log [inhibitor] -8.52"}, "[6]": {"biological_target": "T4, Recombinant human furin (Homo sapiens, UniProt P09958)", "T4 construct": "purchased Bio-Techne", "T4 sequence (P09958 108-794)": "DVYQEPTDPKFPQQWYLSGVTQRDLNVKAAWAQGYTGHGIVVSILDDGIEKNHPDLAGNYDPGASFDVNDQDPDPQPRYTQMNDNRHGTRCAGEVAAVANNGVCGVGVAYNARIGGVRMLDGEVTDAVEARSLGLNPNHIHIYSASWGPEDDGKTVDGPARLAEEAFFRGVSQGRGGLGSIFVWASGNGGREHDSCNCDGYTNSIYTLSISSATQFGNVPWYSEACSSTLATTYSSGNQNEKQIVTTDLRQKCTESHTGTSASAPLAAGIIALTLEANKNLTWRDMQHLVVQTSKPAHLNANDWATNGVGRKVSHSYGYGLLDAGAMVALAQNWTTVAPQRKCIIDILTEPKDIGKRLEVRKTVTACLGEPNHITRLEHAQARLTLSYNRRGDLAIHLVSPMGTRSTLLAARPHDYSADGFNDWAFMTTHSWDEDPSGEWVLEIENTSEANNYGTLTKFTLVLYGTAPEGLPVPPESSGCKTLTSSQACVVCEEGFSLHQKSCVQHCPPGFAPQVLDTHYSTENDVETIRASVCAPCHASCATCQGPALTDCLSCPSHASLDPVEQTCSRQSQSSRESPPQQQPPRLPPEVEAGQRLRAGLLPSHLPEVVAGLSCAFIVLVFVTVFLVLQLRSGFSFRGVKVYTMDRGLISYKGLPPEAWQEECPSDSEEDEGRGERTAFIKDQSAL", "assay": "Protease selectivity, Ki on recombinant protease", "format": "biochemical", "settings": "mean ± s.d., max concentration 10 µM; read-out: Ki Furin"}, "[7]": {"system": "SARS-CoV-2 lineage B strain (VIDO)", "assay": "microbe, parasite or virus in culture", "format": "cell-based"}, "[8]": {"biological_target": "T5, Recombinant human DESC1 (Homo sapiens, UniProt Q9UL52)", "T5 construct": "made in house", "T5 sequence (Q9UL52 1-423)": "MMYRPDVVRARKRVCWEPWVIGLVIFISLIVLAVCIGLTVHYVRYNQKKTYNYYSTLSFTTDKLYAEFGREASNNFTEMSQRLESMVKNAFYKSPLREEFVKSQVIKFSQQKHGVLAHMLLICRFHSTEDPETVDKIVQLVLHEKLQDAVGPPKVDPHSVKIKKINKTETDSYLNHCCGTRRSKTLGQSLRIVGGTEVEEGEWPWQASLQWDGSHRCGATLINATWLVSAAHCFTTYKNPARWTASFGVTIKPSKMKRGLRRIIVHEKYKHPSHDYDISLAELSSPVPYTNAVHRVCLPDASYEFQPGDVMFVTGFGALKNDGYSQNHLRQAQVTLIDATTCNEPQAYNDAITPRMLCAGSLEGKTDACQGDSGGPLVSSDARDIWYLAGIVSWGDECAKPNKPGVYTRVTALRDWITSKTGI", "assay": "Protease selectivity, Ki on recombinant protease", "format": "biochemical", "settings": "mean ± s.d., max concentration 10 µM; read-out: Ki DESC1"}, "[9]": {"biological_target": "T6, Recombinant human matriptase (Homo sapiens, UniProt Q9Y5Y6)", "T6 construct": "made in house", "T6 sequence (Q9Y5Y6 1-855)": "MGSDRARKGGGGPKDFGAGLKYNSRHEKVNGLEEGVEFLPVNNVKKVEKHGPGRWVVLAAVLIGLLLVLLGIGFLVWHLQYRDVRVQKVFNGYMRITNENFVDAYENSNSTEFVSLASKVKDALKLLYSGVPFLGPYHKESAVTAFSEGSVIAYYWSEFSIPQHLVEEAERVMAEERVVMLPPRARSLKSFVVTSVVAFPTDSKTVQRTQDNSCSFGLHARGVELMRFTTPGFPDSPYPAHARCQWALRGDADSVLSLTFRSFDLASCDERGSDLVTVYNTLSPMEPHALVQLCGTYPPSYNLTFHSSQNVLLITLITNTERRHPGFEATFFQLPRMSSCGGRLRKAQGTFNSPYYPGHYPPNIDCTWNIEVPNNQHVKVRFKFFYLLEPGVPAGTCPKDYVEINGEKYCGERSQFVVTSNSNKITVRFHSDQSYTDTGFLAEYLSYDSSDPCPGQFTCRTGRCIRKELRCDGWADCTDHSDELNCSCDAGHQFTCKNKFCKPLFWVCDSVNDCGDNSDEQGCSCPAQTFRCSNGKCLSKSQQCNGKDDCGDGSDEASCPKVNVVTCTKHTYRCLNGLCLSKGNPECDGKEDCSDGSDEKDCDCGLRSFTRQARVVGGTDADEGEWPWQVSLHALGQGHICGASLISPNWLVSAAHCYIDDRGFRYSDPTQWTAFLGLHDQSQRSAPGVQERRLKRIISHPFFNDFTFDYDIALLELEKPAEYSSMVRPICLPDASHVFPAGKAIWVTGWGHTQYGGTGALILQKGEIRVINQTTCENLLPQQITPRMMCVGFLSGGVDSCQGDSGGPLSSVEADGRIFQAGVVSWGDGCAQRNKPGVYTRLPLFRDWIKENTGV", "assay": "Protease selectivity, Ki on recombinant protease", "format": "biochemical", "settings": "mean ± s.d., max concentration 10 µM; read-out: Ki Matriptase"}, "[10]": {"biological_target": "human TMPRSS2 (Homo sapiens, UniProt O15393)", "sequence (O15393 whole entry)": "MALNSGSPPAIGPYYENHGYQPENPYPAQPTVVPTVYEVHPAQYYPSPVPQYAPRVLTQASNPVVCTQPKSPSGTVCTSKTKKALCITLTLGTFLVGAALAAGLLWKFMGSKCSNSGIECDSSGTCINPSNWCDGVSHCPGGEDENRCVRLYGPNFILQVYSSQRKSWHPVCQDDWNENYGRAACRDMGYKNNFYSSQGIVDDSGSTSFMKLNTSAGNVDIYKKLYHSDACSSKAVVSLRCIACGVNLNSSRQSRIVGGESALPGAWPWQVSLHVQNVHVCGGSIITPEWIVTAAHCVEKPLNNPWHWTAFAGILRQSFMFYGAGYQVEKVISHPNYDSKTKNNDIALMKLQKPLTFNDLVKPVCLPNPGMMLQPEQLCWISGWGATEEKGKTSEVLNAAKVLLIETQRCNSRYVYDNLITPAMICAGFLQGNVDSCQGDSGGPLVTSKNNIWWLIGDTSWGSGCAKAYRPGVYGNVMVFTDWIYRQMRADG", "assay": "cell-based", "settings": "for TMPRSS2 relative activity: technical duplicates"}, "[11]": {"settings": "read-out: % of Viability, Average (n=2)"}, "[12]": {"settings": "single replicates, read-out: % of Viability"}}, "note": "Values joined by “and” are separate entries in the source; they are usually repeats but may differ in a detail not shown here. Equal values may be shown once. Read-outs that look alike come from different tables or passages of the source.", "data": [{"smiles": "N=C(N)NCCCCC(=O)NC(CCC(N)=O)C(=O)NC(Cc1ccccc1)C(=O)NC(CCCNC(=N)N)C(=O)c1nc2ccccc2s1", "note": "(stereo not shown) [Compound N-0130, (H)RQFR-kbt]", "values": [{"measurement": "Ki", "setting": "[1]", "value": "0.00038 ± 0.00019", "unit": "µM"}, {"measurement": "Ki", "setting": "[2]", "value": "> 10", "unit": "µM"}, {"measurement": "Ki", "setting": "[3]", "value": "8.23 ± 1.55", "unit": "µM"}, {"measurement": "% of Viability", "setting": "[4]; Log [inhibitor] -2.52", "value": 47, "unit": "%"}, {"measurement": "% of Viability", "setting": "[4]; Log [inhibitor] -3.00", "value": 89, "unit": "%"}, {"measurement": "% of Viability", "setting": "[4]; Log [inhibitor] -4.00", "value": 94, "unit": "%"}, {"measurement": "% of Viability", "setting": "[4]; Log [inhibitor] -5.00", "value": 92, "unit": "%"}, {"measurement": "% of Viability", "setting": "[4]; Log [inhibitor] -6.52", "value": 108, "unit": "%"}, {"measurement": "% of Viability", "setting": "[4]; Log [inhibitor] -8.52", "value": 107, "unit": "%"}, {"measurement": "viability at 24 h, 3000 µM", "setting": "[5]; [11]", "value": 44.5, "unit": "%"}, {"measurement": "viability at 24 h, 3000 µM", "setting": "[5]; [12]", "value": 42, "unit": "%"}, {"measurement": "viability at 24 h, 1000 µM", "setting": "[5]; [11]", "value": 86.5, "unit": "%"}, {"measurement": "viability at 24 h, 1000 µM", "setting": "[5]; [12]", "value": 84, "unit": "%"}, {"measurement": "viability at 24 h, 300 µM", "setting": "[5]; [11]", "value": 90.5, "unit": "%"}, {"measurement": "viability at 24 h, 300 µM", "setting": "[5]; [12]", "value": 90, "unit": "%"}, {"measurement": "viability at 24 h, 100 µM", "setting": "[5]; [11]", "value": 91, "unit": "%"}, {"measurement": "viability at 24 h, 100 µM", "setting": "[5]; [12]", "value": 88, "unit": "%"}, {"measurement": "viability at 24 h, 30 µM", "setting": "[5]; [11]", "value": 96.5, "unit": "%"}, {"measurement": "viability at 24 h, 30 µM", "setting": "[5]; [12]", "value": 98, "unit": "%"}, {"measurement": "viability at 24 h, 10 µM", "setting": "[5]; [11]", "value": 95, "unit": "%"}, {"measurement": "viability at 24 h, 10 µM", "setting": "[5]; [12]", "value": 98, "unit": "%"}, {"measurement": "viability at 24 h, 3 µM", "setting": "[5]; [11]", "value": 100, "unit": "%"}, {"measurement": "viability at 24 h, 3 µM", "setting": "[5]; [12]", "value": 99, "unit": "%"}, {"measurement": "viability at 24 h, 0.3 µM", "setting": "[5]; [11]", "value": 106, "unit": "%"}, {"measurement": "viability at 24 h, 0.3 µM", "setting": "[5]; [12]", "value": 103, "unit": "%"}, {"measurement": "viability at 24 h, 0.03 µM", "setting": "[5]; [11]", "value": 101, "unit": "%"}, {"measurement": "viability at 24 h, 0.03 µM", "setting": "[5]; [12]", "value": 99, "unit": "%"}, {"measurement": "viability at 24 h, 0.003 µM", "setting": "[5]; [11]", "value": 104, "unit": "%"}, {"measurement": "viability at 24 h, 0.003 µM", "setting": "[5]; [12]", "value": 101, "unit": "%"}, {"measurement": "CC50 at 24 h", "setting": "[5]; unit not given for CC50, read-out: CC50", "value": 2680, "unit": "µM"}, {"measurement": "Ki", "setting": "[6]", "value": "> 10", "unit": "µM"}, {"measurement": "Nucleocapsid", "setting": "[7]; Figure 2a, two replicates, DMSO control about 91-94", "value": "2.419 and 11.8709"}, {"measurement": "dsRNA", "setting": "[7]; Figure 2a, two replicates, DMSO control about 93-95", "value": "3.583 and 18.343"}, {"measurement": "EC50", "setting": "[7]; Severe acute respiratory syndrome coronavirus 2, Calu-3, read-out: SARS-CoV-2 VIDO Nucleocapsid EC50 ± SE", "value": "0.0301 ± 0.0301", "unit": "µM"}, {"measurement": "inhibition at 0.1 µM", "setting": "[7]; Severe acute respiratory syndrome coronavirus 2, Calu-3, read-out: inhibition of SARS-CoV-2 infection", "value": "> 93", "unit": "%"}, {"measurement": "Figure 2b dose-response, Mean", "setting": "[7]; log [C] (nM) 0.20412", "value": 93.6494}, {"measurement": "Figure 2b dose-response, Mean", "setting": "[7]; log [C] (nM) 0.90309", "value": 82.4234}, {"measurement": "Figure 2b dose-response, Mean", "setting": "[7]; log [C] (nM) 1.60206", "value": 39.6362}, {"measurement": "Figure 2b dose-response, Mean", "setting": "[7]; log [C] (nM) 2.30103", "value": 5.2153}, {"measurement": "Figure 2b dose-response, Mean", "setting": "[7]; log [C] (nM) 3", "value": 0.8023}, {"measurement": "Figure 2b dose-response, Mean", "setting": "[7]; log [C] (nM) -0.49485", "value": 100}, {"measurement": "Figure 2b dose-response, Mean", "setting": "[7]; log [C] (nM) -1.19382", "value": 97.2147}, {"measurement": "Ki", "setting": "[8]", "value": "0.028 ± 0.01", "unit": "µM"}, {"measurement": "Ki", "setting": "[9]", "value": "0.00013 ± 3e-05", "unit": "µM"}, {"measurement": "TMPRSS2 relative activity", "setting": "[10]; 1.00E-06 M", "value": "5.317 and 4.665"}, {"measurement": "TMPRSS2 relative activity", "setting": "[10]; 1.00E-07 M", "value": "0.9344 and 1.227"}, {"measurement": "TMPRSS2 relative activity", "setting": "[10]; 2.00E-08 M", "value": "26.2346 and 28.2385"}, {"measurement": "TMPRSS2 relative activity", "setting": "[10]; 3.20E-11 M", "value": "95.7258 and 93.264"}, {"measurement": "TMPRSS2 relative activity", "setting": "[10]; 4.00E-09 M", "value": "48.3901 and 50.7993"}, {"measurement": "TMPRSS2 relative activity", "setting": "[10]; 8.00E-10 M", "value": "84.4379 and 85.0608"}, {"measurement": "TMPRSS2 activity (%)", "setting": "[10]; Figure 1B, single experiments N1-N3", "value": "32.9396% and 22.7789% and 30.45%"}, {"measurement": "IC50", "setting": "[10]; TMPRSS2, mean of independent experiments, Figure 1C, read-out: IC50 Mean", "value": 0.0031, "unit": "µM"}, {"measurement": "IC50", "setting": "[10]; TMPRSS2, single experiments, Figure 1C, read-out: IC50 determined from independant experiments", "value": "0.00174 µM and 0.00287 µM and 0.0047 µM"}, {"measurement": "inhibition at 0.01 µM", "setting": "[10]; Vero C1008, 10 nM compound, 24 h, vs untreated/vehicle TMPRSS2-expressing Vero E6 cells, read-out: inhibition of TMPRSS2 activity (reduction of substrate proteolysis)", "value": 72, "unit": "%"}, {"measurement": "IC50", "setting": "[10]; Vero E6 cells expressing human TMPRSS2, 24 h with fluorogenic substrate, read-out: TMPRSS2 IC50 ± SD", "value": "0.0031 ± 0.0015", "unit": "µM"}]}]}
